Read-outs that look alike come from different tables or passages of the source.
Assays:
ZIKV NS5 RdRp = target: T1, ZIKV NS5 RdRp (Zika virus, UniProt Q32ZE1); type: biochemical; conditions: analog triphosphates against ZIKV NS5 RdRp
T1 construct: activity of select analog triphosphates against the ZIKV NS5 RdRp

ZIKV [1] = assay: ZIKV infectious (cytoprotection, XTT) assay; type: cell-based, Zika virus; conditions: read-out: ZIKV EC50
Procedure: (§1) Vero cells were passaged in DMEM medium in T-75 flasks prior to use in the antiviral assay. On the day preceding the assay, the cells were split 1:2 to assure they were in exponential growth phase at the time of infection. The cells were resuspended at […] cells per well in tissue culture medium and added to flat bottom microtiter plates in a volume of […]. The plates were incubated at 37° C./5% CO2 overnight to allow for cell adherence. Separately, Zika virus was titrated in LLCMK2 cells to define the inoculum for use in the antiviral assay. Virus was diluted in DMEM medium such that the amount of virus added to each well in a volume of […] was the amount determined to achieve 85 to 95% cell killing at 5 days post-infection. Following incubation test plates were stained with XTT dye. XTT solution was prepared daily as a stock solution of 1 mg/mL in RPM11640. PMS solution was prepared at 0.15 mg/mL in PBS and stored in the dark at −20° C. XTT/PMS stock was prepared immediately before use by adding […] of PMS per mL of XTT solution. Fifty microliters of XTT/PMS was added to each well of the plate, and the plate was reincubated for 4 hours at 37° C. Plates were sealed with adhesive plate sealers ad shaken gently to mix the soluble formazan product, and the plate was read spectrophotometrically read 450/650 nm with a Molecular Devices Vmax plate reader. The raw data was collected from Softmax Pro and imported into a Microsoft Excel XLfit4 spreadsheet for analysis using four parameter curve fit calculations.

[2] = Cytotoxicity in Vero cells (XTT); type: cell-based, African green monkey; conditions: African green monkey
Procedure: as §1

ZIKV [3] = assay: ZIKV infectious (cytoprotection, XTT) assay; type: cell-based; conditions: Zika virus
Vero cells = assay: Cytotoxicity in Vero cells (XTT); type: cell-based, African green monkey
Procedure: as §1

DENV2 New Guinea C = assay: Anti-Dengue virus cytoprotection assay; type: cell-based, Dengue virus type 2
Procedure: Cell Preparation—BHK21 cells (Syrian golden hamster kidney cells, ATCC catalog #CCL-I 0), Vero cells (African green monkey kidney cells, ATCC catalog #CCL-81), or Huh-7 cells (human hepatocyte carcinoma) were passaged in DMEM supplemented with 10% FBS, 2 mM L-glutamine, 100 U/mL penicillin, and 100 μg/mL streptomycin in T-75 flasks prior to use in the antiviral assay. On the day preceding the assay, the cells were split 1:2 to assure they were in an exponential growth phase at the time of infection. Total cell and viability quantification was performed using a hemocytometer and Trypan Blue dye exclusion. Cell viability was greater than 95% for the cells to be utilized in the assay. The cells were resuspended at 3×10^3 ([…] for Vero cells and Huh-7 cells) cells per well in tissue culture medium and added to flat bottom microtiter plates in a volume of 100 μL. The plates were incubated at 37° C./5% CO2 overnight to allow for cell adherence.
Virus Preparation—The Dengue virus type 2 New Guinea C strain was obtained from ATCC (catalog #VR-1584) and was grown in LLC-MK2 (Rhesus monkey kidney cells; catalog #CCL-7.1) cells for the production of stock virus pools. An aliquot of virus pretitered in BHK21 cells was removed from the freezer (−80° C.) and allowed to thaw slowly to room temperature in a biological safety cabinet. Virus was resuspended and diluted into assay medium (DMEM supplemented with 2% heat-inactivated FBS, 2 mM L-glutamine, 100 U/mL penicillin, and 100 μg/mL streptomycin) such that the amount of virus added to each well in a volume of 100 μL was the amount determined to yield 85 to 95% cell killing at 6 days post-infection.
Plate Format—Each plate contains cell control wells (cells only), virus control wells (cells plus virus), triplicate drug toxicity wells per compound (cells plus drug only), as well as triplicate experimental wells (drug plus cells plus virus).
Efficacy and Toxicity XTT-Following incubation at 37° C. in a 5% CO2 incubator, the test plates were stained with the tetrazolium dye XTT (2,3-bis(2-methoxy-4-nitro-5-sulfophenyl)-5-[(phenylamino)carbonyl]-2H-tetrazolium hydroxide). XTT-tetrazolium was metabolized by the mitochondrial enzymes of metabolically active cells to a soluble formazan product, allowing rapid quantitative analysis of the inhibition of virus-induced cell killing by antiviral test substances. XTT solution was prepared daily as a stock of 1 mg/mL in RPMI 1640. Phenazine methosulfate (PMS) solution was prepared at 0.15 mg/mL in PBS and stored in the dark at −20° C. XTT/PMS stock was prepared immediately before use by adding 40 μL of PMS per ml of XTT solution. Fifty microliters of XTT/PMS was added to each well of the plate and the plate was reincubated for 4 hours at 37° C. Plates were sealed with adhesive plate sealers and shaken gently or inverted several times to mix the soluble formazan product and the plate was read spectrophotometrically at 450/650 nm with a Molecular Devices Vmax plate reader.
Data Analysis —Raw data was collected from the Softmax Pro 4.6 software and imported into a Microsoft Excel spreadsheet for analysis. The percent reduction in viral cytopathic effect compared to the untreated virus controls was calculated for each compound. The percent cell control value was calculated for each compound comparing the drug treated uninfected cells to the uninfected cells in medium alone.

HRV-26 = assay: Human rhinovirus assay (HRV-26); type: cell-based; conditions: Human rhinovirus sp., HRV26; Cell Line HeLa
[4] = system: CC1(O)C(O)[C@@H](COP(=O)(O)OP(=O)(O)OP(=O)(O)O)O[C@H]1n1ccc(=O)[nH]c1=O; assay: purified protein, by the assay type; type: biochemical, Zika virus
[5] = system: C#CC1(O)C(O)[C@@H](COP(=O)(O)OP(=O)(O)OP(=O)(O)O)O[C@H]1n1ccc(=O)[nH]c1=O; assay: purified protein, by the assay type
[6] = system: C#CC1(O)C(O)[C@@H](COP(=O)(O)OP(=O)(O)OP(=O)(O)O)O[C@H]1n1cnc2c(N)ncnc21; assay: purified protein, by the assay type
[7] = system: CC1(O)C(O)[C@@H](COP(=O)(O)OP(=O)(O)OP(=O)(O)O)O[C@H]1n1cnc2c(=O)[nH]c(N)nc21; assay: purified protein, by the assay type
[8] = system: CC1(O)C(O)[C@@H](COP(=O)(O)OP(=O)(O)OP(=O)(O)O)O[C@H]1n1cnc2c(N)ncnc21; assay: purified protein, by the assay type
[9] = system: CC1(O)C(O)[C@@H](COP(=O)(O)OP(=O)(O)OP(=O)(O)O)O[C@H]1n1ccc(N)nc1=O; assay: purified protein, by the assay type
[10] = Zika virus, Vero, ZIKV infectious assay, Vero cells
[11] = Zika virus, Vero, Cell Line Vero
[12] = Huh-7, Cell Line Huh-7, read-out: ZIKV EC50

T1 sequence (Q32ZE1 2517-3419): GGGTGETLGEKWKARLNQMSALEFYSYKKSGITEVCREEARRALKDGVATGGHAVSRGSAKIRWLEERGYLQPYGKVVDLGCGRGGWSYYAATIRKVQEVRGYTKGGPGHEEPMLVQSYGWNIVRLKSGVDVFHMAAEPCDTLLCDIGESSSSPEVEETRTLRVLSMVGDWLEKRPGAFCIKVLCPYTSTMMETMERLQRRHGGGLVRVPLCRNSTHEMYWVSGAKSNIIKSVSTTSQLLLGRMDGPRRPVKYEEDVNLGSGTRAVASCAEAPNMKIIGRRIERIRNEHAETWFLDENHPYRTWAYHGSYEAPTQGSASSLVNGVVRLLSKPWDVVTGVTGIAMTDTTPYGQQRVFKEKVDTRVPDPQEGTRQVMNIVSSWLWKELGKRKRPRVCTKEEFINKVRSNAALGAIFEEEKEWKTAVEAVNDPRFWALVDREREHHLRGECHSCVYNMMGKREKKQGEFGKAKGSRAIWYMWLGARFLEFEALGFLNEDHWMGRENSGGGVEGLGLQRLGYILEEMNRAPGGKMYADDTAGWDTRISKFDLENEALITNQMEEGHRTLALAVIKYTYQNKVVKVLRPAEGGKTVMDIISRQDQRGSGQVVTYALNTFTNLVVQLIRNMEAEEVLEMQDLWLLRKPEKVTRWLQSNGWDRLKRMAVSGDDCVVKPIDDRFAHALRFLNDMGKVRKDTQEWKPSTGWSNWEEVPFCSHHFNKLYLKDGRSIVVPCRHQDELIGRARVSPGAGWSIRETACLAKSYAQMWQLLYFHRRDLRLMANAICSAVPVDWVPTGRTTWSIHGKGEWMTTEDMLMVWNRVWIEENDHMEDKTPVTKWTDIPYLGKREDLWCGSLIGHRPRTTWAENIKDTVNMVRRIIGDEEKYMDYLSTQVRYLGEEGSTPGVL

C#CC1(O)C(O)[C@@H](COP(=O)(O)OP(=O)(O)OP(=O)(O)O)O[C@H]1n1cnc2c(N)ncnc21 (some centres unmarked)
ZIKV Polymerase Assay Discrimination (ZIKV NS5 RdRp): 5

CC1(O)C(O)[C@@H](COP(=O)(O)OP(=O)(O)OP(=O)(O)O)O[C@H]1n1ccc(N)nc1=O (some centres unmarked)
ZIKV Polymerase Assay Discrimination (ZIKV NS5 RdRp): 7

CC1(O)C(O)[C@@H](COP(=O)(O)OP(=O)(O)OP(=O)(O)O)O[C@H]1n1cnc2c(=O)[nH]c(N)nc21 (some centres unmarked)
ZIKV Polymerase Assay Discrimination (ZIKV NS5 RdRp): 13

CC1(O)C(O)[C@@H](COP(=O)(O)OP(=O)(O)OP(=O)(O)O)O[C@H]1n1ccc(=O)[nH]c1=O (some centres unmarked)
ZIKV Polymerase Assay Discrimination (ZIKV NS5 RdRp): 53

CC1(O)C(O)[C@@H](COP(=O)(O)OP(=O)(O)OP(=O)(O)O)O[C@H]1n1cnc2c(N)ncnc21 (some centres unmarked)
ZIKV Polymerase Assay Discrimination (ZIKV NS5 RdRp): 12

C#CC1(O)C(O)[C@@H](COP(=O)(O)OP(=O)(O)OP(=O)(O)O)O[C@H]1n1ccc(=O)[nH]c1=O (some centres unmarked)
ZIKV Polymerase Assay Discrimination (ZIKV NS5 RdRp): 5

C#CC1(O)C(O)[C@@H](CO)O[C@H]1n1ccc2c(N)ncnc21 (some centres unmarked)
EC50 (ZIKV [1]; [10]): 0.34 µM | CC50 at 5 days [2]: 35.4 µM

CC1(O)C(O)[C@@H](CO)O[C@H]1n1ccc(N)nc1=O (some centres unmarked)
EC50 (ZIKV [1]; [10]): 0.13 µM | CC50 at 5 days [2]: 9.57 µM

CC1(O)C(O)[C@@H](CO)O[C@H]1n1cnc2c(=O)[nH]c(N)nc21 (some centres unmarked)
EC50 (ZIKV [1]; [10]): 7.23 µM | CC50 at 5 days [2]: > 100 µM

CC(C)(C)C(=O)OCOP(=O)(OCOC(=O)C(C)(C)C)OC[C@H]1O[C@@H](n2ccc(=O)[nH]c2=O)C(C)(O)C1O (some centres unmarked)
EC50 (ZIKV [1]; [10]): 3.57 µM | CC50 at 5 days [2]: 26.4 µM

C#C[C@@]1(O)[C@H](O)[C@@H](CO)O[C@H]1n1ccc(=O)[nH]c1=O
EC50 (ZIKV [1]; [11]): > 100 µM | EC50 (ZIKV [3]; [12]): > 100 µM

C#C[C@@]1(O)[C@H](O)[C@@H](CO)O[C@H]1n1cc(F)c(=O)[nH]c1=O
EC50 (ZIKV [3]; [12]): > 100 µM

C#C[C@@]1(O)[C@H](O)[C@@H](CO[P@@](=O)(N[C@@H](C)C(=O)OC(C)C)Oc2ccccc2)O[C@H]1n1cc(F)c(=O)[nH]c1=O
EC50 (ZIKV [1]; Zika virus, Vero): > 100 µM | EC50 (ZIKV [3]; Huh-7, read-out: ZIKV EC50): 13 µM

C#CC1(O)C(O)[C@@H](COP(=O)(OCOC(=O)C(C)(C)C)OCOC(=O)C(C)(C)C)O[C@H]1n1cc(F)c(=O)[nH]c1=O (some centres unmarked)
EC50 (ZIKV [3]; [12]): 5.3 µM

CC1(O)C(O)[C@@H](CO)O[C@H]1n1cnc2c(N)ncnc21 (some centres unmarked) [drawing 675]
EC50 (ZIKV [1]; ZIKV infectious assay, Vero cells): 2.46 µM | CC50 (Vero cells): > 100 µM

CC1(O)C(O)[C@@H](CO)O[C@H]1n1cnc2c(N)ncnc21 (some centres unmarked) [drawing 678]
EC50 (ZIKV [1]; [10]): 2.75 µM | CC50 at 5 days [2]: > 100 µM

C#CC1(O)C(O)[C@@H](COP(=O)(OCOC(=O)C(C)(C)C)OCOC(=O)C(C)(C)C)O[C@H]1n1ccc(=O)[nH]c1=O (some centres unmarked) [drawing 679]
EC50 (ZIKV [1]; [10]): 1.06 µM | CC50 at 5 days [2]: 11 µM

C#C[C@@]1(O)[C@H](O)[C@@H](CO[P@@](=O)(N[C@@H](C)C(=O)OC(C)C)Oc2ccccc2)O[C@H]1n1ccc2c(N)ncnc21 [drawing 740]
EC50 (DENV2 New Guinea C; DENV2, BHK-21, read-out: DENV2 New Guinea C EC50): 27.7 µM

C#C[C@@]1(O)[C@H](O)[C@@H](CO)O[C@H]1n1cnc2cnc(N)nc21 [drawing 741]
EC50 (DENV2 New Guinea C; DENV2, Vero, read-out: DENV2 New Guinea C EC50): > 100 µM

C#C[C@@]1(O)[C@H](O)[C@@H](CO[P@@](=O)(N[C@@H](C)C(=O)OC(C)C)Oc2ccccc2)O[C@H]1n1ccc(=O)[nH]c1=O [drawing 742]
EC50 (HRV-26): 3.22 µM

C#C[C@@]1(O)[C@H](O)[C@@H](CO)O[C@H]1n1cnc2cnc(N)nc21 [drawing 743]
EC50 (HRV-26): > 100 µM

C#C[C@@]1(O)[C@H](O)[C@@H](CO[P@@](=O)(N[C@@H](C)C(=O)OC(C)C)Oc2ccccc2)O[C@H]1n1ccc2c(N)ncnc21 [drawing 744]
EC50 (ZIKV [3]; Huh-7, read-out: ZIKV EC50): 0.001 µM

C#C[C@@]1(O)[C@H](O)[C@@H](CO[P@@](=O)(N[C@@H](C)C(=O)OC(C)C)Oc2ccccc2)O[C@H]1n1ccc(=O)[nH]c1=O [drawing 746]
EC50 (ZIKV [1]; Zika virus, Vero): > 100 µM | EC50 (ZIKV [3]; Huh-7, read-out: ZIKV EC50): 0.5 µM

C#C[C@@]1(O)[C@H](O)[C@@H](CO)O[C@H]1n1cnc2cnc(N)nc21 [drawing 747]
EC50 (ZIKV [3]; HeLa, Cell Line HeLa, read-out: ZIKV EC50): > 100 µM

C#C[C@@]1(O)[C@H](O)[C@@H](CO)O[C@H]1n1cnc2cnc(N)nc21 [drawing 751]
EC50 (ZIKV [1]; [11]): > 100 µM

ZIKV NS5 RdRp (Zika virus)
Km [4]: 72.82 µM | Km [5]: 6.59 µM | Km [6]: 1.26 µM | Km [7]: 2.82 µM | Km [8]: 3.03 µM | Km [9]: 1.45 µM

— patent publication US11192914B2, “Alkyne containing nucleotide and nucleoside therapeutic compositions and uses related thereto” (Emory University, priority 2016, dated 2021)
